Test results reported in patent US20250154240A1, “ANTI-HUMAN CXCL1 ANTIBODY” (CHIOME BIOSCIENCE INC., priority 2022, published 2025).

How the values were obtained:
[1] = system: CXCR2-expressing cells; settings: known; cited from earlier work
[2] = system: OCUM-12 gastric cancer cell line; assay: Antitumor activity test, model with OCUM-12 orthotopic transplantation (prevention model); format: in vivo, mouse; settings: orally 100 mg/kg/day, once a day for 5 consecutive days followed by 2-day withdrawal
Method: A model with OCUM-12 orthotopic transplantation was prepared to evaluate the above 4 types of candidate antibodies for their in vivo CXCR2 migration inhibitory activity and antitumor activity in a xenograft model with OCUM-12 orthotopic transplantation.
For use as mice, female nude mice (BALB/cAJcl-nu/nu) at 5 to 6 weeks of age were purchased from CLEA Japan, Inc., Japan. For use as human cancer cells, a gastric cancer cell line, OCUM-12, was provided by University Public Corporation Osaka, Japan. […]
On the day following the above transplantation, the mice were randomized into groups (8 or 6 mice per group) and intraperitoneally administered with PBS as a control and with 4 types of candidate antibodies (1A-7H10, 4A-2F7, 5A-5E11 and 028-8-12) and 3 types of non-candidate antibodies (1A-3C6, 1A-2H3 and 4A-5B11) at a dose of 20 mg/kg. […] After 3 weeks had passed from the transplantation, the mice were sacrificed, and the short- and long-axis diameters of tumors formed in their gastric walls were each measured with a caliper. The tumor size was calculated according to the following: 1/2 short-axis diameter (mm)×1/2 long-axis diameter (mm)×3.14. […]
The humanized antibodies were evaluated for their in vivo antitumor activity and CXCR2 migration inhibitory activity in a xenograft model with OCUM-12 orthotopic transplantation. […]

[3] = system: CXCR2-expressing cells; assay: In vivo migration inhibitory activity test on CXCR2-expressing cells, OCUM-12 orthotopic transplantation (prevention model); set-up: species or system mouse; settings: navarixin orally 100 mg/kg/day, once a day for 5 consecutive days followed by 2-day withdrawal
Text: The stomachs after measurement of the tumor size in [3-1] above were excised and fixed overnight at room temperature with a 10% neutral buffered formalin solution (Wako Pure Chemical Industries, Ltd., Japan), followed by replacement with PBS. Then, paraffin embedding and section preparation were outsourced to Applied Medical Research Laboratory, Japan. The prepared gastric tumor sections were immunohistologically stained with an anti-CXCR2 antibody to evaluate in vivo CXCR2 cell migration inhibitory activity. The sections were deparaffinized and rehydrated, and then treated to inactivate endogenous peroxidase. After antigen activation treatment, the sections were blocked with PBS containing 2% skimmed milk and 0.1% Tween-20, and reacted overnight at 4° C. with an anti-CXCR2 antibody (Biorbyt) as a primary antibody, which had been diluted to 0.3 μg/mL with the blocking solution. […]
Navarixin is among small molecular compounds that act on CXCR2 and inhibit CXCL1-CXCR2 signaling. […] Then, using a model with OCUM-12 orthotopic transplantation, the migration inhibition of CXCR2-expressing cells and antitumor activity were evaluated in vivo for Navarixin. […]
The dose-response relationship between antibody dose and in vivo antitumor activity or CXCR2 migration inhibitory activity was evaluated in a xenograft prevention model with OCUM-12 orthotopic transplantation. […]

CC[C@@H](Nc1c(Nc2cccc(C(=O)N(C)C)c2O)c(=O)c1=O)c1ccc(C)o1 [Navarixin, reference compound]
Migration of CXCR2-expressing cells in vitro [1]: known to inhibit the migration of CXCR2-expressing cells in vitro | Antitumor activity [2]: no antitumor activity was observed | Migration of CXCR2-expressing cells in vivo [3]: significantly inhibit the migration of CXCR2-expressing cells
